Laboratory results published in patent publication US12209087B2, “AKT1 modulators” (Alterome Therapeutics, Inc., priority 2022, dated 2025).

Target: T1, full length AKT E17K (Homo sapiens, UniProt P31749, E17K)
T1 construct: host or cells: HEK-293 (ATCC CRL-1573)
Experiment: NanoBRET Target Engagement (TE) Assay
Type: cell-based
Settings: competitive displacement of tracer in cells, read-out: AKT1 E17K IC50
Method in brief: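 Compound and tracer incubated 2 h before luminescence at donor 450 nm and acceptor 600 nm, with extracellular signal inhibited. EC50 by sigmoidal variable-slope regression.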

T1 sequence (P31749 whole entry E17K): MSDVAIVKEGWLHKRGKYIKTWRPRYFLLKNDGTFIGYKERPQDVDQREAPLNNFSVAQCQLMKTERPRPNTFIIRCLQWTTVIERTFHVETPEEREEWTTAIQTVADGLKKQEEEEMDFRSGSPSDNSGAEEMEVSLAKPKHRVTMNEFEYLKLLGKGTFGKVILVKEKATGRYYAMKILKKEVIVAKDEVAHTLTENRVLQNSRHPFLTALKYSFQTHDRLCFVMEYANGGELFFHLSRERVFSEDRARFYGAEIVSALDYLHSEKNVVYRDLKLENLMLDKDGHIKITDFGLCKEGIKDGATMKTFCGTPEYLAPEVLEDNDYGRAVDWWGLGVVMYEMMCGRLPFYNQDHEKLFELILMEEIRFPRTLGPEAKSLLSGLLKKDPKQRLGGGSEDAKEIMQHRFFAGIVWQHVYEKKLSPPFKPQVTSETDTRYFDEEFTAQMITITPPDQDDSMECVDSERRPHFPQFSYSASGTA

| Compound | IC50 [µM] |
| --- | --- |
| N#Cc1nccc(NC2CC3(CCN(Cc4ccc(-n5c(-c6cccnc6N)nc6ccc(-c7ccc(F)cc7)nc65)cc4)CC3)C2)n1 [Example 444, 4-((7-(4-(2-(2-Aminopyridin-3-yl)-5-(4-fluorophenyl)-3H-imidazo[4,5-b]pyridin-3-yl)benzyl)-7-azaspiro[3.5]nonan-2-yl)amino)pyrimidine-2-carbonitrile] | 0.015 to 0.06 |
| N#Cc1nccc(NC2CC3(C2)CN(Cc2ccc(-n4c(-c5cccnc5N)nc5ccc(-c6ccc(F)cc6)nc54)cc2)C3)n1 [Example 445, 4-((2-(4-(2-(2-Aminopyridin-3-yl)-5-(4-fluorophenyl)-3H-imidazo[4,5-b]pyridin-3-yl)benzyl)-2-azaspiro[3.3]heptan-6-yl)amino)pyrimidine-2-carbonitrile] | < 0.015 |
| N#Cc1nccc(NC2CCC3(CC2)CN(Cc2ccc(-n4c(-c5cccnc5N)nc5ccc(-c6ccc(F)cc6)nc54)cc2)C3)n1 [Example 446, 4-((2-(4-(2-(2-Aminopyridin-3-yl)-5-(4-fluorophenyl)-3H-imidazo[4,5-b]pyridin-3-yl)benzyl)-2-azaspiro[3.5]nonan-7-yl)amino)pyrimidine-2-carbonitrile] | 0.015 to 0.06 |
| N#Cc1nccc(N2CC3(CN(Cc4ccc(-n5c(-c6cccnc6N)nc6ccc(-c7ccc(F)cc7)nc65)cc4)C3)C2)n1 [Example 447, 4-(6-(4-(2-(2-Aminopyridin-3-yl)-5-(4-fluorophenyl)-3H-imidazo[4,5-b]pyridin-3-yl)benzyl)-2,6-diazaspiro[3.3]heptan-2-yl)pyrimidine-2-carbonitrile] | < 0.015 |
| N#Cc1nccc(N2CC3CCC(C2)N3Cc2ccc(-n3c(-c4cccnc4N)nc4ccc(-c5ccc(F)cc5)nc43)cc2)n1 [Example 448, 4-(8-(4-(2-(2-Aminopyridin-3-yl)-5-(4-fluorophenyl)-3H-imidazo[4,5-b]pyridin-3-yl)benzyl)-3,8-diazabicyclo[3.2.1]octan-3-yl)pyrimidine-2-carbonitrile] | 0.015 to 0.06 |
| N#Cc1nccc(N2C[C@H]3CN(Cc4ccc(-n5c(-c6cccnc6N)nc6ccc(-c7ccc(F)cc7)nc65)cc4)C[C@H]3C2)n1 [Example 449, 4-((3aR,6aS)-5-(4-(2-(2-Aminopyridin-3-yl)-5-(4-fluorophenyl)-3H-imidazo[4,5-b]pyridin-3-yl)benzyl)hexahydropyrrolo[3,4-c]pyrrol-2(1H)-yl)pyrimidine-2-carbonitrile] | 0.015 to 0.06 |
| N#Cc1nccc(N2C[C@@H]3CN(Cc4ccc(-n5c(-c6cccnc6N)nc6ccc(-c7ccc(F)cc7)nc65)cc4)C[C@H]3C2)n1 [Example 450, 4-((3aS,6aS)-5-(4-(2-(2-Aminopyridin-3-yl)-5-(4-fluorophenyl)-3H-imidazo[4,5-b]pyridin-3-yl)benzyl)hexahydropyrrolo[3,4-c]pyrrol-2(1H)-yl)pyrimidine-2-carbonitrile] | 0.015 to 0.06 |
| [2H]C1(Nc2ccnc(C#N)n2)CCN(Cc2ccc(-n3c(-c4cccnc4N)nc4ccc(-c5ccc(F)cc5)nc43)cc2)CC1 [Example 451, 4-((1-(4-(2-(2-Aminopyridin-3-yl)-5-(4-fluorophenyl)-3H-imidazo[4,5-b]pyridin-3-yl)benzyl)piperidin-4-yl-4-d)amino)pyrimidine-2-carbonitrile] | < 0.015 |
| [2H]C1(Nc2ccnc(C#N)n2)CCN(Cc2ccc(-n3c(-c4cccnc4N)nc4cc(C)c(C)nc43)cc2)CC1 [Example 452, 4-((1-(4-(2-(2-Aminopyridin-3-yl)-5,6-dimethyl-3H-imidazo[4,5-b]pyridin-3-yl)benzyl)piperidin-4-yl-4-d)amino)pyrimidine-2-carbonitrile] | < 0.015 |
| N#Cc1nccc(NC2CCN(Cc3ccc(-n4c(-c5cccnc5N)nc5ccc(C6=CCCC6)nc54)cc3)CC2)n1 [Example 453, 4-((1-(4-(2-(2-aminopyridin-3-yl)-5-(cyclopent-1-en-1-yl)-3H-imidazo[4,5-b]pyridin-3-yl)benzyl)piperidin-4-yl)amino)pyrimidine-2-carbonitrile] | < 0.015 |
